Laboratory results reported in paper PMC10221074, “Functional Profiling of the A-Family of Venom Peptides from the Wolf Spider Lycosa shansia” (Toxins, 2023).

Experiments:
G. mellonella larvae = test: Insecticidal activity by injection into larvae; format: in vivo, Galleria mellonella; conditions: 50 ng peptide injected, 3 cohorts of 10 larvae, survival monitored for 5 days
Method: Insecticidal activity was determined using fourth and fifth instar G. mellonella larvae (L4/L5) obtained from Fauna Topics Zoobedarf Zucht und Handels GmbH (Marbach am Neckar, Germany). Because spider venom is injected via chelicerae, we opted for an injection-based assay to reflect the natural process of envenomation as described earlier. The peptides were dissolved in a 1:1 mixture of DMSO and water to a final concentration of 10 mmol/L. We injected 50 ng of each peptide into the pseudopodium using Omnican-F, 0.30 × 12 mm/G 30 × 1/2”, a 1 mL syringe adjusted to a WPI manual microsyringe injector setup. Injections with water, DMSO/water (1:1) and ethanol (90%) were used as controls, alongside untreated specimens. Insecticidal activity screenings were performed in cohorts of 10 larvae with 3 replicates (30 specimens per treatment or control). […] Survival was monitored every 24 h for 5 days. Mortality was calculated based on the ratio of dead to injected specimens.

[1] = test system: Staphylococcus aureus DSM 2569; test: Antibacterial growth assay (OD600); conditions: for Bacterial growth relative to medium, S. aureus, replicate 1 / Bacterial growth relative to medium, S. aureus, replicate 2 / Bacterial growth relative to medium, S. aureus, replicate 3: OD600, medium = 100, MH II broth, 37 °C, peptide 200 µM mixed 50 µL + 50 µL with bacteria, Figure 7: 48 h; for Bacterial growth relative to medium, S. aureus, replicate 1: replicate column 1; for Bacterial growth relative to medium, S. aureus, replicate 2: replicate column 2; for Bacterial growth relative to medium, S. aureus, replicate 3: replicate column 3; for Antibacterial activity (in words): S. aureus DSM 2569, growth after 48 h
Method: (§1) Cryo-conserved cultures of selected bacterial strains (Table 4) were transferred to Tryptic Soy Agar (TSA) plates (Carl Roth) with a sterile inoculation loop, sealed with Parafilm (BEMIS, Neenah, WI, USA), and incubated for 1–2 days at 37 °C depending on growth. Single colonies were picked and transferred into 2–3 mL of the Mueller–Hinton II (MH II) broth (BD, Heidelberg, Germany). The bacteria were cultivated overnight, subcultured on fresh medium and grown for 3–4 h before testing at 37 °C, with shaking at 180 rpm. We measured the optical density at 600 nm (OD600) of 1 mL of the bacterial suspensions in polystyrene cuvettes (SARSTED, Nümbrecht, Germany) using an Ultrospec 10 spectrophotometer (Biochrome, Cambridge, UK). We then diluted them with the MH II medium to the preferred OD600 (Table 2). The peptides were dissolved in DMSO to generate 10 mmol/L stocks and diluted with the MH II medium to 200 µM before the assay. We used 10 µg/mL (~40 µg/mL for S. epidermidis) gentamicin and colistin (Sigma-Aldrich, Taufkirchen, Germany), DMSO and the medium only as controls. The bacteria were transferred to 96-multiwell plates with a final volume of 100 µL per well (50 µL bacterial suspension, and 50 µL test peptide). The OD600 was measured at 0, 24 and 48 h using a BioTek Eon microplate reader followed by analysis with Gen5 v2.09.

[2] = test system: Pseudomonas aeruginosa DSM 50071; test: Antibacterial growth assay (OD600); conditions: OD600, medium = 100, MH II broth, 37 °C, peptide 200 µM mixed 50 µL + 50 µL with bacteria, Figure 7: 48 h; for Bacterial growth relative to medium, P. aeruginosa (50071), replicate 1: replicate column 1; for Bacterial growth relative to medium, P. aeruginosa (50071), replicate 2: replicate column 2; for Bacterial growth relative to medium, P. aeruginosa (50071), replicate 3: replicate column 3
[3] = test system: Micrococcus luteus DSM 20030; test: Antibacterial growth assay (OD600); conditions: for Antibacterial activity (in words): M. luteus DSM 20030, growth after 48 h; for Bacterial growth relative to medium, M. luteus, replicate 1 / Bacterial growth relative to medium, M. luteus, replicate 2 / Bacterial growth relative to medium, M. luteus, replicate 3: OD600, medium = 100, MH II broth, 37 °C, peptide 200 µM mixed 50 µL + 50 µL with bacteria, Figure 7: 48 h; for Bacterial growth relative to medium, M. luteus, replicate 1: replicate column 1; for Bacterial growth relative to medium, M. luteus, replicate 2: replicate column 2; for Bacterial growth relative to medium, M. luteus, replicate 3: replicate column 3
[4] = test system: Pseudomonas aeruginosa DSM 1117; test: Antibacterial growth assay (OD600); conditions: OD600, medium = 100, MH II broth, 37 °C, peptide 200 µM mixed 50 µL + 50 µL with bacteria, Figure 7: 48 h; for Bacterial growth relative to medium, P. aeruginosa (1117), replicate 1: replicate column 1; for Bacterial growth relative to medium, P. aeruginosa (1117), replicate 2: replicate column 2; for Bacterial growth relative to medium, P. aeruginosa (1117), replicate 3: replicate column 3
[5] = test system: Staphylococcus epidermidis DSM 28319; test: Antibacterial growth assay (OD600); conditions: for Bacterial growth relative to medium, S. epidermidis, replicate 1 / Bacterial growth relative to medium, S. epidermidis, replicate 2 / Bacterial growth relative to medium, S. epidermidis, replicate 3: OD600, medium = 100, MH II broth, 37 °C, peptide 200 µM mixed 50 µL + 50 µL with bacteria, Figure 7: 48 h; for Bacterial growth relative to medium, S. epidermidis, replicate 1: replicate column 1; for Bacterial growth relative to medium, S. epidermidis, replicate 2: replicate column 2; for Bacterial growth relative to medium, S. epidermidis, replicate 3: replicate column 3; for Antibacterial activity (in words): S. epidermidis DSM 28319, growth after 48 h
Method: as §1

A/Hessen/1/2003 (H3N2) = format: cell-based, influenza virus; conditions: for Viability of infected cells relative to aprotinin, Replicate 4: replicate 4 (additional internal control)
[6] = test system: Listeria monocytogenes DSM 20600; test: Antibacterial growth assay (OD600); conditions: for Bacterial growth relative to medium, L. monocytogenes, replicate 1 / Bacterial growth relative to medium, L. monocytogenes, replicate 2 / Bacterial growth relative to medium, L. monocytogenes, replicate 3: OD600, medium = 100, MH II broth, 37 °C, peptide 200 µM mixed 50 µL + 50 µL with bacteria, Figure 7: 48 h; for Bacterial growth relative to medium, L. monocytogenes, replicate 1: replicate column 1; for Bacterial growth relative to medium, L. monocytogenes, replicate 2: replicate column 2; for Bacterial growth relative to medium, L. monocytogenes, replicate 3: replicate column 3
[7] = test system: panel of seven bacterial strains; test: Antibacterial growth assay (OD600), statements on the whole panel; format: cell-based; conditions: growth after 48 h
[8] = test system: Escherichia coli BL21(DE3); test: Antibacterial growth assay (OD600); conditions: for Bacterial growth relative to medium, E. coli, replicate 1 / Bacterial growth relative to medium, E. coli, replicate 2 / Bacterial growth relative to medium, E. coli, replicate 3: OD600, medium = 100, MH II broth, 37 °C, peptide 200 µM mixed 50 µL + 50 µL with bacteria, Figure 7: 48 h; for Bacterial growth relative to medium, E. coli, replicate 1: replicate column 1; for Bacterial growth relative to medium, E. coli, replicate 2: replicate column 2; for Bacterial growth relative to medium, E. coli, replicate 3: replicate column 3
[9] = test system: B/Malaysia/2506/2004 (B-Mal); format: cell-based, influenza virus
A/Hamburg/05/2009 (H1N1) = format: cell-based, influenza virus

Sequence | Insecticidal effect on larvae (in words) (G. mellonella larvae) | Bacterial growth relative to medium, S. aureus, replicate 1 [1] | Bacterial growth relative to medium, S. aureus, replicate 2 [1] | Bacterial growth relative to medium, S. aureus, replicate 3 [1] | Bacterial growth relative to medium, P. aeruginosa (50071), replicate 1 [2] | Bacterial growth relative to medium, P. aeruginosa (50071), replicate 2 [2] | Bacterial growth relative to medium, P. aeruginosa (50071), replicate 3 [2] | Bacterial growth relative to medium, M. luteus, replicate 1 [3] | Bacterial growth relative to medium, M. luteus, replicate 2 [3] | Bacterial growth relative to medium, M. luteus, replicate 3 [3] | Bacterial growth relative to medium, P. aeruginosa (1117), replicate 1 [4] | Bacterial growth relative to medium, P. aeruginosa (1117), replicate 2 [4] | Bacterial growth relative to medium, P. aeruginosa (1117), replicate 3 [4] | Bacterial growth relative to medium, S. epidermidis, replicate 1 [5] | Bacterial growth relative to medium, S. epidermidis, replicate 2 [5] | Bacterial growth relative to medium, S. epidermidis, replicate 3 [5] | Viability of infected cells relative to aprotinin, Replicate 1 (A/Hessen/1/2003 (H3N2)) | Viability of infected cells relative to aprotinin, Replicate 2 (A/Hessen/1/2003 (H3N2)) | Viability of infected cells relative to aprotinin, Replicate 3 (A/Hessen/1/2003 (H3N2)) | Bacterial growth relative to medium, L. monocytogenes, replicate 1 [6] | other results
LLDVVKSKIGQTGLL [LS-AMP-A16] | Individual dead insects | 50.7381 | 99.8365 | 66.4796 | 93.645 | 105.945 | 72.2488 | 57.3268 | 84.1216 | 27.4989 | 71.8168 | 74.7999 | 64.6393 | 52.6925 | 45.3012 | 72.1389 | 0.0324 | 0.05366 | 0.1082 | 81.5984 | Antibacterial activity (in words) [1]: able to decrease the growth; Antibacterial activity (in words) [3]: able to decrease the growth; Antibacterial activity (in words) [5]: able to decrease the growth; Antibacterial activity (in words) ([6]; L. monocytogenes DSM 20600, growth after 48 h): able to decrease the growth; Bacterial growth relative to medium, L. monocytogenes, replicate 2 [6]: 58.0902; Bacterial growth relative to medium, L. monocytogenes, replicate 3 [6]: 20.8033; Antibacterial activity over the panel (in words) [7]: broad activity against all tested bacteria except P. aeruginosa DSM50071; Antibacterial activity (in words) ([8]; E. coli BL21(DE3), growth after 48 h): able to decrease the growth; Bacterial growth relative to medium, E. coli, replicate 1 [8]: 67.9376; Bacterial growth relative to medium, E. coli, replicate 2 [8]: 59.8494; Bacterial growth relative to medium, E. coli, replicate 3 [8]: 34.0285; Viability of infected cells relative to aprotinin, Replicate 1 [9]: 0.002646; Viability of infected cells relative to aprotinin, Replicate 2 [9]: 0.01088; Viability of infected cells relative to aprotinin, Replicate 3 [9]: 0.03862; Viability of infected cells relative to aprotinin, Replicate 1 (A/Hamburg/05/2009 (H1N1)): 0.02774; Viability of infected cells relative to aprotinin, Replicate 2 (A/Hamburg/05/2009 (H1N1)): 0.02676; Viability of infected cells relative to aprotinin, Replicate 3 (A/Hamburg/05/2009 (H1N1)): 0.01877
SLLGLLDVVKNTVGQT [LS-AMP-A10] | Individual dead insects | 64.1206 | 64.9771 | 91.1709 | 97.2952 | 110.352 | 83.9978 | 61.1915 | 88.7389 | 35.3419 | 65.0772 | 90.1148 | 64.0892 | 79.4001 | 71.0012 | 83.073 | 0.05441 | 0.1761 | 0.1729 | 109.148 | Antibacterial activity (in words) [3]: no activity; Viability of infected cells relative to aprotinin, Replicate 4 (A/Hessen/1/2003 (H3N2)): 0.1942; Bacterial growth relative to medium, L. monocytogenes, replicate 2 [6]: 78.161; Bacterial growth relative to medium, L. monocytogenes, replicate 3 [6]: 28.6946; Antibacterial activity over the panel (in words) [7]: inhibited the growth of most of the bacteria except two; Bacterial growth relative to medium, E. coli, replicate 1 [8]: 81.6291; Bacterial growth relative to medium, E. coli, replicate 2 [8]: 64.3105; Bacterial growth relative to medium, E. coli, replicate 3 [8]: 57.0069; Viability of infected cells relative to aprotinin, Replicate 1 [9]: 0.07328; Viability of infected cells relative to aprotinin, Replicate 2 [9]: 0.09773; Viability of infected cells relative to aprotinin, Replicate 3 [9]: 0.07183; Viability of infected cells relative to aprotinin, Replicate 1 (A/Hamburg/05/2009 (H1N1)): 0.0352; Viability of infected cells relative to aprotinin, Replicate 2 (A/Hamburg/05/2009 (H1N1)): 0.02417; Viability of infected cells relative to aprotinin, Replicate 3 (A/Hamburg/05/2009 (H1N1)): 0.03391
SLLGLLDVVKSKIGQT [LS-AMP-A15] | Individual dead insects | 62.2914 | 63.5709 | 94.1265 | 101.444 | 115.913 | 84.6093 | 87.1981 | 100.338 | 54.7585 | 80.9004 | 77.0275 | 69.3765 | 84.6766 | 83.7361 | 92.3812 | 0.1635 | 0.1644 | 0.1569 | 129.232 | Antibacterial activity (in words) [1]: limited activity; Antibacterial activity (in words) [5]: limited activity; Viability of infected cells relative to aprotinin, Replicate 4 (A/Hessen/1/2003 (H3N2)): 0.1576; Bacterial growth relative to medium, L. monocytogenes, replicate 2 [6]: 92.1308; Bacterial growth relative to medium, L. monocytogenes, replicate 3 [6]: 85.5096; Bacterial growth relative to medium, E. coli, replicate 1 [8]: 103.062; Bacterial growth relative to medium, E. coli, replicate 2 [8]: 89.9768; Bacterial growth relative to medium, E. coli, replicate 3 [8]: 48.0425; Viability of infected cells relative to aprotinin, Replicate 1 [9]: 0.05034; Viability of infected cells relative to aprotinin, Replicate 2 [9]: 0.05082; Viability of infected cells relative to aprotinin, Replicate 3 [9]: 0.05878; Viability of infected cells relative to aprotinin, Replicate 1 (A/Hamburg/05/2009 (H1N1)): 0.04491; Viability of infected cells relative to aprotinin, Replicate 2 (A/Hamburg/05/2009 (H1N1)): 0.03692; Viability of infected cells relative to aprotinin, Replicate 3 (A/Hamburg/05/2009 (H1N1)): 0.03514
